From BindingDB's records for doi:10.1016/0960-894X(95)00174-R (1995)

Key:
[1] = target: Platelet-activating factor receptor (Oryctolagus cuniculus); experiment: In vitro inhibitory activity against PAF-induced aggregation of rabbit platelets
[2] = target: Platelet-activating factor receptor (Oryctolagus cuniculus); experiment: In vitro ability to displace [3H]PAF from PAF receptor in rabbit platelet membranes

IC50 [1] [nM] | Ki [2] [nM] | Compound
 | 4.3 | CCCCCCCCCCCCCCCCCCNC(=O)OC[C@H]1C[C@H](COC(=O)N(Cc2cccc[n+]2CC)C(C)=O)C1 [2-{[Acetyl-(3-octadecylcarbamoyloxymethyl-cyclobutylmethoxycarbonyl)-amino]-methyl}-1-ethyl-pyridinium; iodide]
 | 35 | CCCCCCCCCCCCCCCCCCNC(=O)OC[C@H]1C[C@H](COC(=O)N(Cc2cccc[n+]2CC)C(C)=O)N1C(C)=O [2-{[Acetyl-((2R,4R)-1-acetyl-4-octadecylcarbamoyloxymethyl-azetidin-2-ylmethoxycarbonyl)-amino]-methyl}-1-ethyl-pyridinium; chloride]
57 | 4.3 | CCCCCCCCCCCCCCCCCCNC(=O)OC[C@H]1C[C@H](COC(=O)N(Cc2cccc[n+]2CC)C(C)=O)S1 [2-{[Acetyl-((2R,4R)-4-octadecylcarbamoyloxymethyl-thietan-2-ylmethoxycarbonyl)-amino]-methyl}-1-ethyl-pyridinium; chloride]
61 | 9.8 | CCCCCCCCCCCCCCCCCCNC(=O)OC[C@H]1C[C@@H](COC(=O)N(Cc2cccc[n+]2CC)C(C)=O)S1 [2-{[Acetyl-((2S,4R)-4-octadecylcarbamoyloxymethyl-thietan-2-ylmethoxycarbonyl)-amino]-methyl}-1-ethyl-pyridinium; chloride]
 | 9.8 | CCCCCCCCCCCCCCCCNC(=O)OC[C@@H]1C[C@@H](COC(=O)N(Cc2cccc[n+]2CC)C(C)=O)S1 [2-{[Acetyl-((2S,4S)-4-hexadecylcarbamoyloxymethyl-thietan-2-ylmethoxycarbonyl)-amino]-methyl}-1-ethyl-pyridinium; chloride]

More lines, now with the values behind:

Compound | IC50 [1] [nM] | Ki [2] [nM]
CCCCCCCCCCCCCCCCCCNC(=O)OC[C@H]1C[C@H](COC(=O)N(Cc2cccc[n+]2CC)C(=O)c2ccc(OC)cc2)S1 [1-Ethyl-2-{[(4-methoxy-benzoyl)-(4-octadecylcarbamoyloxymethyl-thietan-2-ylmethoxycarbonyl)-amino]-methyl}-pyridinium; chloride] | 84 | 34
CCCCCCCCCCCCCCCCOC[C@H]1C[C@H](COC(=O)N(Cc2cccc[n+]2CC)C(C)=O)S1 [2-{[Acetyl-((2R,4R)-4-hexadecyloxymethyl-thietan-2-ylmethoxycarbonyl)-amino]-methyl}-1-ethyl-pyridinium; chloride] | 52 | 20
CCCCCCCCCCCCCCCCOC[C@H]1C[C@@H](COC(=O)N(Cc2cccc[n+]2CC)C(C)=O)O1 [2-{[Acetyl-((2S,4R)-4-hexadecyloxymethyl-oxetan-2-ylmethoxycarbonyl)-amino]-methyl}-1-ethyl-pyridinium; iodide] | 95 | 21
CCCCCCCCCCCCCCCCOC[C@@H]1C[C@@H](COC(=O)N(Cc2cccc[n+]2CC)C(C)=O)O1 [2-{[Acetyl-((2S,4S)-4-hexadecyloxymethyl-oxetan-2-ylmethoxycarbonyl)-amino]-methyl}-1-ethyl-pyridinium; iodide] | 57 | 15
